This is an account of results in ChEMBL document CHEMBL5376011, “Discovery of Anti-Hypercholesterolemia Agents Targeting LXRα from Marine Microorganism-Derived Natural Products” (J Nat Prod, 2024).

For series [1], the target named is T1, Oxysterols receptor LXR-alpha (Homo sapiens) (UniProt Q13133).
T1 sequence (whole entry): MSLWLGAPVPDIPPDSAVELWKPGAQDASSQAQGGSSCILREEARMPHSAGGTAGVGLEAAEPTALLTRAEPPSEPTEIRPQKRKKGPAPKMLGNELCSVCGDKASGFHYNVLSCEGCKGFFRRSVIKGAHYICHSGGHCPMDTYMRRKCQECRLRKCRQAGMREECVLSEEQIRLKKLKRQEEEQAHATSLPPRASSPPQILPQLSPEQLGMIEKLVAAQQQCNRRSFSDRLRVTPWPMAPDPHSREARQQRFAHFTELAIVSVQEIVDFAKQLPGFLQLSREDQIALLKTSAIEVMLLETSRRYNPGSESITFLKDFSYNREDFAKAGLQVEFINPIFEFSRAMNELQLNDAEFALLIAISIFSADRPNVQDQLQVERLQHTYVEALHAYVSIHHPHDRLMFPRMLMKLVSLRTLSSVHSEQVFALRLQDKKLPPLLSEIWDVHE
The experiment in a line: Agonist activity at LXRalpha in human HepG2 cells assessed as upregulation of ABCA1 mRNA expression by measuring fold change at 25 uM incubated for 24 hrs by RT-qPCR analysis. The series is classed as cell-based. As to conditions: filed as agonist.

For series [2], the system named is Mus musculus. Description: Antihypercholesterolemic activity against high cholesterol diet induced C57BL/6J mouse assessed as reduction in serum alanine aminotransferase level at 300 microg/kg, ip administered every 2 days for 15 days. It counts as functional, organism-based. As to conditions: dose 300.0 µg/kg, time 15.0 day.
Series [3] addresses T2, Oxysterols receptor LXR-alpha (Homo sapiens, UniProt Q13133).
T2 sequence (Q13133 whole entry): T1 sequence (whole entry)
Description: Binding affinity to full length human LXRalpha assessed as dissociation constant by SPR analysis. (In general: In SPR one partner is held on a chip, and binding of the other changes the refractive index at the surface.)

Series [4] has as its system Mus musculus. Description: Antihypercholesterolemic activity against high cholesterol diet fed LXRalpha knockout C57BL/6J mouse assessed as upregulation in CYP7A1 protein level at 300 microg/kg, ip administered every 2 days for 15 days by Western blot analysis. The note with it: dose 300.0 µg/kg, time 15.0 day. It counts as functional, organism-based. On the technique in general: In western blotting, separated proteins are transferred to a membrane and probed.

In series [5] the target is T1, Oxysterols receptor LXR-alpha (Homo sapiens). Description: Agonist activity at LXRalpha in human HepG2 cells assessed as upregulation of ABCA1 protein expression level at 25 uM incubated for 24 hrs by Western blot analysis. It counts as cell-based. The note with it: filed as agonist.
Series [6] deals with Mus musculus. Description: Antihypercholesterolemic activity against high cholesterol diet fed C57BL/6J mouse assessed as reduction of fine vacuoles in the cytoplasm at 300 microg/kg, ip administered every 2 days for 15 days by H&E staining based analysis. The series is classed as functional, organism-based. The note with it: dose 300.0 µg/kg, time 15.0 day.
The subject of series [7] is Mus musculus. The experiment in a line: Antihypercholesterolemic activity against high cholesterol diet fed C57BL/6J mouse assessed as reduction in FASN protein level at 300 microg/kg, ip administered every 2 days for 15 days by Western blot analysis. The note with it: dose 300.0 µg/kg, time 15.0 day. The series is classed as functional, organism-based.
Series [8] concerns Mus musculus. Description: Antihypercholesterolemic activity against high cholesterol diet fed C57BL/6J mouse assessed as improvement in hepatocyte degeneration at 300 microg/kg, ip administered every 2 days for 15 days by Oil red staining based analysis. The series is classed as functional, organism-based. As to conditions: dose 300.0 µg/kg, time 15.0 day.
In series [9] the test system is Mus musculus. The experiment in a line: Antihypercholesterolemic activity against high cholesterol diet fed LXRalpha knockout C57BL/6J mouse assessed as improvement in hepatic steatosis at 300 microg/kg, ip administered every 2 days for 15 days by H&E staining based analysis. The series is classed as functional, organism-based. As to conditions: dose 300.0 µg/kg, time 15.0 day.

For series [10], the system named is Mus musculus. The experiment in a line: Antihypercholesterolemic activity against high cholesterol diet fed LXRalpha knockout C57BL/6J mouse assessed as improvement in hepatocellular degeneration at 300 microg/kg, ip administered every 2 days for 15 days by H&E staining based analysis. The note with it: dose 300.0 µg/kg, time 15.0 day. The series is classed as functional, organism-based.

Series [11] relates to Mus musculus. Description: Antihypercholesterolemic activity against high cholesterol diet fed C57BL/6J mouse assessed as reduction in SREBP1 protein level at 300 microg/kg, ip administered every 2 days for 15 days by Western blot analysis. The series is classed as functional, organism-based. As to conditions: dose 300.0 µg/kg, time 15.0 day.
The subject of series [12] is HepG2. The experiment in a line: Improvement of lipid metabolism in palmitic acid and oleic acid induced human HepG2 cell model of hepatic steatosis assessed as reduction in lipid droplets at 25 uM preincubated with palmitic acid and oleic acid for 48 hrs followed by compound addition and measured after 24 hrs by Oil Red O staining based analysis. The series is classed as functional.

Series [13] relates to Mus musculus. The experiment in a line: Antihypercholesterolemic activity against high cholesterol diet fed LXRalpha knockout C57BL/6J mouse assessed as reduction in serum low density lipoprotein cholesterol level at 300 microg/kg, ip administered every 2 days for 15 days. The series is classed as functional, organism-based. As to conditions: dose 300.0 µg/kg, time 15.0 day.

For series [14], the system named is Mus musculus. The experiment in a line: Antihypercholesterolemic activity against high cholesterol diet fed C57BL/6J mouse assessed as reduction in hepatocyte lysis necrosis at 300 microg/kg, ip administered every 2 days for 15 days by Oil red staining based analysis. The note with it: dose 300.0 µg/kg, time 15.0 day. The series is classed as functional, organism-based.

Series [15] has as its system HepG2. The experiment in a line: Improvement of lipid metabolism in palmitic acid and oleic acid induced human HepG2 cell model of hepatic steatosis assessed as reduction in triglyceride level at 25 uM preincubated with palmitic acid and oleic acid for 48 hrs followed by compound addition and measured after 24 hrs. The series is classed as functional, cell-based.
A short description of series [16]: Cytotoxicity against human HepG2 cells assessed as reduction in cell viability incubated for 24 hrs by CCK8 assay. It counts as toxicity, cell-based.
In series [17] the test system is Mus musculus. Description: Antihypercholesterolemic activity against high cholesterol diet fed C57BL/6J mouse assessed as improvement in hepatocyte liposis at 300 microg/kg, ip administered every 2 days for 15 days by Oil red staining based analysis. The series is classed as functional, organism-based. The note with it: dose 300.0 µg/kg, time 15.0 day.
Series [18] relates to Mus musculus. The experiment in a line: Antihypercholesterolemic activity against high cholesterol diet fed LXRalpha knockout C57BL/6J mouse assessed as improvement in hepatocellular degeneration at 300 microg/kg, ip administered every 2 days for 15 days by Oil red staining based analysis. It counts as functional, organism-based. The note with it: dose 300.0 µg/kg, time 15.0 day.

Series [19] has as its system HepG2. Description: Effect on ABCG1 mRNA expression in human HepG2 cells at 25 uM incubated for 24 hrs by RT-qPCR analysis. The series is classed as functional, cell-based. Background: In qPCR the cycle at which signal appears reflects the starting amount.
Series [20] deals with Mus musculus. The experiment in a line: Antihypercholesterolemic activity against high cholesterol diet fed LXRalpha knockout C57BL/6J mouse assessed as improvement in liver lipid droplet accumulation at 300 microg/kg, ip administered every 2 days for 15 days by Oil red staining based analysis. It counts as functional, organism-based. The note with it: dose 300.0 µg/kg, time 15.0 day.

For series [21], the system named is Mus musculus. Description: Antihypercholesterolemic activity against high cholesterol diet fed LXRalpha knockout C57BL/6J mouse assessed as upregulation in ABCA1 protein level at 300 microg/kg, ip administered every 2 days for 15 days by Western blot analysis. As to conditions: dose 300.0 µg/kg, time 15.0 day. The series is classed as functional, organism-based.

Series [22] has as its target T1, Oxysterols receptor LXR-alpha (Homo sapiens). The experiment in a line: Agonist activity at LXRalpha in human HepG2 cells assessed as upregulation of CYP7A1 mRNA expression by measuring fold change at 25 uM incubated for 24 hrs by RT-qPCR analysis. It counts as cell-based. As to conditions: filed as agonist.

pKd: −log10 of the molar value. Active and inactive are the calls of the source. The calls are words filed in the database; no cut-off is given here.

One may read the pKd as −log10 of the Kd, conventionally taken in molar units. A word on the IC50: it is the concentration that gives 50% inhibition. As to `COc1ccc2c3c([nH]c2c1)[C@H](C=C(C)C)N1C(=O)[C@@H]2CCCN2C(=O)[C@]1(O)[C@H]3O`, the fold change (FC) was found to be 2.13 in series [1] and 5.02 in series [22]. In addition, the outcome in [2], in series [5], in series [6], in series [7], in [8] and in [9] was Active. Moreover, the result in [10], in [11], in series [12], in series [14], in [15] and in series [17] was Active. In addition, the outcome in series [18] and in series [20] was Active. Moreover, the pKd in [3] is 8.25. In addition, the outcome in [4], in series [13], in series [19] and in [21] was inactive. In series [16], the IC50 at 24 h is greater than 50000 nM.
